#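 Protocol summary: plate cells (96-well), add compound at 5 concentrations, incubate 48 h, interpolate endpoints linearly. GI50 marks 50% less growth.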 The source made the active and inactive calls. Rule as the data show it: active = GI50 up to about 1.1 µM and inactive = higher.
# Columns and labels:
# Test in all cases: NCI tumour cell line growth inhibition, 48 h
# Malme-3M = system: Malme-3M
# DMS-273 = system: DMS-273
# OVCAR-3 = system: OVCAR-3
# NCI-H23 = system: NCI-H23
# UO-31 = system: UO-31
# OVCAR-8 = system: OVCAR-8
# SK-MEL-2 = system: SK-MEL-2
# HT-29 = system: HT-29
# UACC-62 = system: UACC-62
# NCI-H522 = system: NCI-H522
# IGROV-1 = system: IGROV-1
# M14 = system: M14
# SK-MEL-5 = system: SK-MEL-5
# DLD-1 = system: DLD-1
# LXFL 529 = system: LXFL 529
# CCRF-CEM = system: CCRF-CEM
# U-251 = system: U-251
# OVCAR-5 = system: OVCAR-5
# OVCAR-4 = system: OVCAR-4
# RXF 393 = system: RXF 393
# HCC 2998 = system: HCC 2998
# KM-20L2 = system: KM-20L2
# SN12C = system: SN12C
# HCT-15 = system: HCT-15
# K562 = system: K562
# SK-OV-3 = system: SK-OV-3
# SNB-78 = system: SNB-78
# SF-295 = system: SF-295
# MOLT-4 = system: MOLT-4
# SNB-19 = system: SNB-19
# SK-MEL-28 = system: SK-MEL-28
# SW-620 = system: SW-620
# TK-10 = system: TK-10
# HOP-92 = system: HOP-92
# XF498 = system: XF498
# CAKI-1 = system: CAKI-1
# COLO 205 = system: COLO 205
# KM12 = system: KM12
# SR = system: SR
# SF-268 = system: SF-268
# HOP-62 = system: HOP-62
# DMS-114 = system: DMS-114
# SNB-75 = system: SNB-75
# EKVX = system: EKVX
# SF-539 = system: SF-539
# NCI-H460 = system: NCI-H460
# UACC-257 = system: UACC-257
# 786-0 = system: 786-0
# A498 = system: A498
# ACHN = system: ACHN
# NCI-H226 = system: NCI-H226
# A549 = system: A549
# HCT-116 = system: HCT-116
# HL-60 = system: HL-60
# M19-MEL = system: M19-MEL
# RPMI-8226 = system: RPMI-8226
# LOX IMVI = system: LOX IMVI
smiles,measurement,setting,value
O=C(N/C(=C\c1ccc(Br)cc1)c1nc2ccccc2[nH]1)c1ccccc1,GI50,Malme-3M,22.9 µM (inactive)
same,GI50,DMS-273,24.3 µM (inactive)
same,GI50,OVCAR-3,19.1 µM (inactive)
same,GI50,NCI-H23,17.1 µM (inactive)
same,GI50,UO-31,15.6 µM (inactive)
same,GI50,OVCAR-8,21 µM (inactive)
same,GI50,SK-MEL-2,16.3 µM (inactive)
same,GI50,HT-29,18.1 µM (inactive)
same,GI50,UACC-62,18.8 µM (inactive)
same,GI50,NCI-H522,14.5 µM (inactive)
same,GI50,IGROV-1,24.7 µM (inactive)
same,GI50,M14,18.2 µM (inactive)
same,GI50,SK-MEL-5,19.8 µM (inactive)
same,GI50,DLD-1,17.5 µM (inactive)
same,GI50,LXFL 529,13.6 µM (inactive)
same,GI50,CCRF-CEM,19.9 µM (inactive)
same,GI50,U-251,17.3 µM (inactive)
same,GI50,OVCAR-5,14.9 µM (inactive)
same,GI50,OVCAR-4,13.3 µM (inactive)
same,GI50,RXF 393,16.4 µM (inactive)
same,GI50,HCC 2998,17.2 µM (inactive)
same,GI50,KM-20L2,15.1 µM (inactive)
same,GI50,SN12C,18.4 µM (inactive)
same,GI50,HCT-15,16.3 µM
same,GI50,K562,15.8 µM (inactive)
same,GI50,SK-OV-3,34.6 µM (inactive)
same,GI50,SNB-78,21.9 µM (inactive)
same,GI50,SF-295,28 µM (inactive)
same,GI50,MOLT-4,17.6 µM (inactive)
same,GI50,SNB-19,18.4 µM (inactive)
same,GI50,SK-MEL-28,15.8 µM (inactive)
same,GI50,SW-620,16.1 µM (inactive)
same,GI50,TK-10,30.1 µM (inactive)
same,GI50,HOP-92,11.6 µM (inactive)
same,GI50,XF498,15.9 µM (inactive)
same,GI50,CAKI-1,23.3 µM (inactive)
same,GI50,COLO 205,18.9 µM (inactive)
same,GI50,KM12,17.5 µM (inactive)
same,GI50,SR,18.3 µM (inactive)
CCOC(=O)CSC(=O)NCCCl,GI50,Malme-3M,> 100 µM (inactive)
same,GI50,DMS-273,> 100 µM (inactive)
same,GI50,SF-268,> 100 µM (inactive)
same,GI50,OVCAR-3,> 100 µM (inactive)
same,GI50,NCI-H23,> 100 µM (inactive)
same,GI50,UO-31,> 100 µM (inactive)
same,GI50,HOP-62,> 100 µM (inactive)
same,GI50,OVCAR-8,> 100 µM (inactive)
same,GI50,DMS-114,> 100 µM (inactive)
same,GI50,SK-MEL-2,> 100 µM (inactive)
same,GI50,HT-29,> 100 µM (inactive)
same,GI50,UACC-62,> 100 µM (inactive)
same,GI50,SNB-75,> 100 µM (inactive)
same,GI50,EKVX,> 100 µM (inactive)
same,GI50,NCI-H522,> 100 µM (inactive)
same,GI50,IGROV-1,> 100 µM (inactive)
same,GI50,M14,> 100 µM (inactive)
same,GI50,DLD-1,> 100 µM (inactive)
same,GI50,LXFL 529,> 100 µM (inactive)
same,GI50,U-251,> 100 µM (inactive)
same,GI50,OVCAR-5,> 100 µM (inactive)
same,GI50,OVCAR-4,> 100 µM (inactive)
same,GI50,RXF 393,> 100 µM (inactive)
same,GI50,HCC 2998,> 100 µM (inactive)
same,GI50,SF-539,> 100 µM (inactive)
same,GI50,NCI-H460,> 100 µM (inactive)
same,GI50,UACC-257,> 100 µM (inactive)
same,GI50,KM-20L2,> 100 µM (inactive)
same,GI50,SN12C,> 100 µM (inactive)
same,GI50,HCT-15,> 100 µM
same,GI50,786-0,> 100 µM (inactive)
same,GI50,SK-OV-3,> 100 µM (inactive)
same,GI50,SNB-78,> 100 µM (inactive)
same,GI50,SF-295,> 100 µM (inactive)
same,GI50,A498,> 100 µM (inactive)
same,GI50,SNB-19,> 100 µM (inactive)
same,GI50,SK-MEL-28,> 100 µM (inactive)
same,GI50,SW-620,> 100 µM (inactive)
same,GI50,TK-10,> 100 µM (inactive)
same,GI50,ACHN,> 100 µM (inactive)
same,GI50,HOP-92,> 100 µM (inactive)
same,GI50,NCI-H226,> 100 µM (inactive)
same,GI50,A549,> 100 µM (inactive)
same,GI50,HCT-116,> 100 µM (inactive)
same,GI50,CAKI-1,> 100 µM (inactive)
same,GI50,COLO 205,> 100 µM (inactive)
same,GI50,KM12,> 100 µM (inactive)
CC1=C(C2=C(C)C(=O)c3c(c(C=O)c(O)c(O)c3C(C)C)C2=O)C(=O)c2c(C=O)c(O)c(O)c(C(C)C)c2C1=O [GOSSYPOLONE],GI50,Malme-3M,4.33 µM (inactive)
same,GI50,SF-268,2.72 µM (inactive)
same,GI50,OVCAR-3,2.31 µM (inactive)
same,GI50,NCI-H23,3.72 µM (inactive)
same,GI50,UO-31,2.17 µM (inactive)
same,GI50,HOP-62,3.64 µM (inactive)
same,GI50,HL-60,2.99 µM (inactive)
same,GI50,DMS-114,2.23 µM (inactive)
same,GI50,SK-MEL-2,1.75 µM (inactive)
same,GI50,HT-29,2.19 µM (inactive)
same,GI50,UACC-62,2.77 µM (inactive)
same,GI50,SNB-75,6.59 µM (inactive)
same,GI50,NCI-H522,4.67 µM (inactive)
same,GI50,IGROV-1,2.69 µM (inactive)
same,GI50,M14,1.96 µM (inactive)
same,GI50,LXFL 529,3.4 µM (inactive)
same,GI50,CCRF-CEM,1.82 µM (inactive)
same,GI50,M19-MEL,4.32 µM (inactive)
same,GI50,U-251,2.64 µM (inactive)
same,GI50,OVCAR-5,1.89 µM (inactive)
same,GI50,OVCAR-4,3.05 µM (inactive)
same,GI50,RXF 393,2.34 µM (inactive)
same,GI50,SF-539,2.69 µM (inactive)
same,GI50,NCI-H460,2.98 µM (inactive)
same,GI50,UACC-257,3.99 µM (inactive)
same,GI50,KM-20L2,2.21 µM (inactive)
same,GI50,K562,2.95 µM (inactive)
same,GI50,SK-OV-3,3.21 µM (inactive)
same,GI50,SNB-78,2.2 µM (inactive)
same,GI50,SF-295,1.93 µM (inactive)
same,GI50,MOLT-4,2.74 µM (inactive)
same,GI50,SNB-19,4.44 µM (inactive)
same,GI50,SK-MEL-28,4.8 µM (inactive)
same,GI50,ACHN,2.96 µM (inactive)
same,GI50,HOP-92,2.53 µM (inactive)
same,GI50,HCT-116,2.36 µM (inactive)
same,GI50,RPMI-8226,2.29 µM (inactive)
same,GI50,COLO 205,3.18 µM (inactive)
same,GI50,KM12,2.24 µM (inactive)
same,GI50,SR,3.97 µM (inactive)
O=[N+]([O-])C1C2C=CC(C2)[C@H]1c1ccc(Cl)cc1Cl (stereo not given in full),GI50,Malme-3M,42.3 µM (inactive)
same,GI50,DMS-273,46.5 µM (inactive)
same,GI50,SF-268,45.1 µM (inactive)
same,GI50,NCI-H23,36.7 µM (inactive)
same,GI50,UO-31,26.4 µM (inactive)
same,GI50,HOP-62,> 10 µM (inactive)
same,GI50,OVCAR-8,57.1 µM (inactive)
same,GI50,HL-60,19.3 µM (inactive)
same,GI50,SK-MEL-2,44.9 µM (inactive)
same,GI50,HT-29,21.4 µM (inactive)
same,GI50,SNB-75,11.4 µM (inactive)
same,GI50,NCI-H522,> 10 µM (inactive)
same,GI50,M14,> 10 µM (inactive)
same,GI50,SK-MEL-5,4.36 µM (inactive)
same,GI50,DLD-1,20.3 µM (inactive)
same,GI50,LXFL 529,39.4 µM (inactive)
same,GI50,CCRF-CEM,39.4 µM (inactive)
same,GI50,M19-MEL,34.8 µM (inactive)
same,GI50,U-251,35.3 µM (inactive)
same,GI50,OVCAR-5,75.2 µM (inactive)
same,GI50,OVCAR-4,> 10 µM (inactive)
same,GI50,RXF 393,20.9 µM (inactive)
same,GI50,HCC 2998,75.5 µM (inactive)
same,GI50,SF-539,35.8 µM (inactive)
same,GI50,NCI-H460,36.2 µM (inactive)
same,GI50,UACC-257,31.8 µM (inactive)
same,GI50,SN12C,67 µM (inactive)
same,GI50,HCT-15,43.3 µM
same,GI50,K562,35.4 µM (inactive)
same,GI50,786-0,54.3 µM (inactive)
same,GI50,SNB-78,48.4 µM (inactive)
same,GI50,SF-295,24.8 µM (inactive)
same,GI50,MOLT-4,26.7 µM (inactive)
same,GI50,LOX IMVI,29.7 µM (inactive)
same,GI50,A498,55 µM (inactive)
same,GI50,SNB-19,48.5 µM (inactive)
same,GI50,SK-MEL-28,19.7 µM (inactive)
same,GI50,SW-620,74.5 µM (inactive)
same,GI50,TK-10,69.7 µM (inactive)
same,GI50,ACHN,33 µM (inactive)
same,GI50,HOP-92,23.3 µM (inactive)
same,GI50,NCI-H226,49 µM (inactive)
same,GI50,XF498,43.7 µM (inactive)
same,GI50,A549,35.2 µM (inactive)
same,GI50,HCT-116,37 µM (inactive)
same,GI50,CAKI-1,> 10 µM (inactive)
same,GI50,RPMI-8226,24.9 µM (inactive)
same,GI50,KM12,61.2 µM (inactive)
same,GI50,SR,35.7 µM (inactive)

# — ChEMBL document CHEMBL1201862, “PubChem BioAssay data set” (2004)
